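Briefly, cells in 96-well plates were exposed to five compound concentrations for 48 h, and endpoints were estimated by linear interpolation. The concentration for 50% growth inhibition is given as GI50.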 Activity calls are given as the source filed them. Cut-off read from the data, not from the text of the source: active = GI50 up to about 1.1 µM and inactive = higher.
Key:
Assay in all cases: inhibition of tumour cell growth, NCI panel, 48 h
OVCAR-5 = tested on: OVCAR-5
DU-145 = tested on: DU-145
NCI-H23 = tested on: NCI-H23
NCI-H226 = tested on: NCI-H226
SNB-19 = tested on: SNB-19
COLO 205 = tested on: COLO 205
M14 = tested on: M14
HT-29 = tested on: HT-29
U-251 = tested on: U-251
TK-10 = tested on: TK-10
MDA-MB-231 = tested on: MDA-MB-231
UACC-62 = tested on: UACC-62
HL-60 = tested on: HL-60
OVCAR-8 = tested on: OVCAR-8
SR = tested on: SR
Hs-578T = tested on: Hs-578T
NCI-H522 = tested on: NCI-H522
SF-539 = tested on: SF-539
Malme-3M = tested on: Malme-3M

Measured: GI50

COc1cc(N(Cc2ccc3oc(=O)c(-c4ccccc4)nc3c2)Cc2ccc3oc(=O)c(-c4ccccc4)nc3c2)cc(OC)c1OC
inactive: OVCAR-5 > 10 µM | DU-145 > 10 µM | NCI-H23 > 10 µM | NCI-H226 > 10 µM | SNB-19 > 10 µM | COLO 205 > 10 µM | M14 > 10 µM | HT-29 > 10 µM | U-251 > 10 µM | TK-10 > 10 µM | MDA-MB-231 > 10 µM | UACC-62 > 10 µM | HL-60 > 10 µM | OVCAR-8 > 10 µM | SR > 10 µM | Hs-578T > 10 µM | NCI-H522 > 10 µM | SF-539 > 10 µM

Clc1ccccc1-c1nc2cc(C34CC5CC(CC(C5)C3)C4)ccc2[nH]1
inactive: OVCAR-5 17.8 µM | DU-145 23.2 µM | NCI-H23 14.4 µM | NCI-H226 25.4 µM | SNB-19 10 µM | COLO 205 34 µM | M14 19.8 µM | HT-29 11.4 µM | U-251 7.98 µM | TK-10 19.1 µM | MDA-MB-231 15 µM | UACC-62 13.9 µM | HL-60 23.7 µM | OVCAR-8 10.9 µM | SR 20.2 µM | Hs-578T 28.8 µM | Malme-3M 25.5 µM | NCI-H522 17 µM

Cc1c(OCc2cccc3ccccc23)ccc2c(O)cc(=S)oc12
inactive: OVCAR-5 54.1 µM | DU-145 36.2 µM | NCI-H23 25.7 µM | NCI-H226 39.5 µM | SNB-19 37.6 µM | COLO 205 31.4 µM | M14 34.8 µM | HT-29 38.2 µM | U-251 35.6 µM | TK-10 56.5 µM | MDA-MB-231 46.5 µM | UACC-62 23.1 µM | HL-60 19.4 µM | OVCAR-8 60.4 µM | SR 28.7 µM | Hs-578T 34.8 µM | NCI-H522 23.4 µM | SF-539 26.9 µM

Cc1nc2cccc(F)c2c(=O)n1-c1nnc(C(F)(F)F)s1
inactive: OVCAR-5 > 10 µM | DU-145 > 10 µM | NCI-H23 > 10 µM | NCI-H226 > 10 µM | SNB-19 > 10 µM | COLO 205 > 10 µM | M14 > 10 µM | HT-29 > 10 µM | U-251 > 10 µM | TK-10 > 10 µM | MDA-MB-231 > 10 µM | UACC-62 > 10 µM | HL-60 > 10 µM | OVCAR-8 > 10 µM | SR > 10 µM | Hs-578T > 10 µM | NCI-H522 > 10 µM | SF-539 > 10 µM

CC(O)(CCCCCl)c1nc2ccccc2s1 (configuration not stated)
inactive: OVCAR-5 > 100 µM | DU-145 > 100 µM | NCI-H23 > 100 µM | NCI-H226 > 100 µM | SNB-19 > 100 µM | COLO 205 > 100 µM | M14 > 100 µM | HT-29 65.9 µM | U-251 85.5 µM | TK-10 > 100 µM | MDA-MB-231 96.4 µM | UACC-62 > 100 µM | HL-60 60.4 µM | OVCAR-8 > 100 µM | SR 53 µM | Hs-578T > 100 µM | NCI-H522 > 100 µM | SF-539 > 100 µM

C=C(CCOC)CCC1CCCCC(CN(C)C)C1=O (configuration not stated)
inactive: OVCAR-5 > 100 µM | DU-145 > 100 µM | NCI-H23 > 100 µM | NCI-H226 > 100 µM | SNB-19 > 100 µM | COLO 205 > 100 µM | M14 > 100 µM | HT-29 > 100 µM | U-251 > 100 µM | MDA-MB-231 > 100 µM | UACC-62 > 100 µM | HL-60 > 100 µM | OVCAR-8 > 100 µM | SR > 100 µM | Hs-578T > 100 µM | Malme-3M > 100 µM | NCI-H522 > 100 µM

Reference: ChEMBL document CHEMBL1201862, “PubChem BioAssay data set” (2004)
